In ChEMBL document CHEMBL1201862, “PubChem BioAssay data set” (2004):
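Tested at 5 concentrations; 48 h exposure; 96-well plates; endpoints linearly interpolated, else capped at highest concentration. GI50 = concentration required for 50% inhibition of growth.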 Active and inactive are the calls of the source. Cut-off read from the data, not from the text of the source: active = GI50 up to about 1.1 µM and inactive = higher.

Key:
Assay in all cases: NCI-60 cell line screen, 48 h
OVCAR-8 = tested on: OVCAR-8
MCF7 = tested on: MCF7
HCC 2998 = tested on: HCC 2998
COLO 205 = tested on: COLO 205
SF-539 = tested on: SF-539
MDA-MB-435 = tested on: MDA-MB-435
NCI-H23 = tested on: NCI-H23
SK-MEL-5 = tested on: SK-MEL-5
IGROV-1 = tested on: IGROV-1
NCI-H522 = tested on: NCI-H522
Malme-3M = tested on: Malme-3M
A549 = tested on: A549
HT-29 = tested on: HT-29
NCI/ADR-RES = tested on: NCI/ADR-RES
DU-145 = tested on: DU-145
RXF 393 = tested on: RXF 393
UACC-62 = tested on: UACC-62
SF-295 = tested on: SF-295
PC-3 = tested on: PC-3
OVCAR-5 = tested on: OVCAR-5

Measured: GI50

O=C1/C(=c2\c3ccccc3n3c(=O)c4ccccc4nc23)Nc2ccccc21 [CANDIDINE]
inactive: OVCAR-8 > 91.8 µM | MCF7 > 70.1 µM | HCC 2998 > 82.4 µM | COLO 205 58.5 µM | SF-539 > 63 µM | MDA-MB-435 18.5 µM | NCI-H23 > 64.9 µM | SK-MEL-5 > 53.8 µM | IGROV-1 > 100 µM | NCI-H522 > 100 µM | Malme-3M 33 µM | A549 > 84.5 µM | HT-29 26.6 µM | NCI/ADR-RES > 100 µM | DU-145 > 100 µM | RXF 393 > 100 µM | UACC-62 43.9 µM | SF-295 > 78.3 µM | PC-3 > 100 µM | OVCAR-5 > 100 µM

C/C1=C\C=C(\C(C)C)CC/C(C(=O)O)=C\CC/C(C)=C/CC1 [NEOCROTOCEMBRANEIC ACID]
inactive: OVCAR-8 31.2 µM | MCF7 16.9 µM | HCC 2998 18.7 µM | COLO 205 23.4 µM | SF-539 18.5 µM | MDA-MB-435 23.6 µM | NCI-H23 20.7 µM | SK-MEL-5 19.3 µM | IGROV-1 42 µM | NCI-H522 19.3 µM | Malme-3M 23.2 µM | A549 30.2 µM | HT-29 32 µM | NCI/ADR-RES 30.5 µM | DU-145 33.1 µM | RXF 393 20.7 µM | UACC-62 13.1 µM | SF-295 20 µM | PC-3 18 µM | OVCAR-5 29.3 µM
